≈ marks a conversion by molar mass, not a printed value.
Legend:
Aspergillus niger = test: In vitro antifungal activity at a minimum inhibitory concentration (~100 ug/mL) against Aspergillus niger; Not affected; format: functional; conditions: Aspergillus niger; read-out: MIC
Candida albicans [1] = test: In vitro antifungal activity against Candida albicans (CA 10231); format: functional
Pichia kudriavzevii = test: In vitro antifungal activity against Candida krusei (CK 28838); format: functional
Candida albicans [2] = test: In vitro antifungal activity against Candida albicans (CA 38247); Weak; format: functional, organism-based
Candida albicans [3] = test: In vitro antifungal activity against Candida albicans (CA 442); Weak; format: functional, organism-based
Candida albicans [4] = test: In vitro for antifungal activity against Candida albicans (CA 579a); format: functional
Candida albicans [5] = test: In vitro antifungal activity against Candida albicans (CA 62376); Weak; format: functional, organism-based
Candida albicans [6] = test: In vitro antifungal activity against […] (CA 34140); Not affected.; format: functional
Candida tropicalis = test: In vitro antifungal activity against Candida tropicalis (CT 750); format: functional
Homo sapiens = organism: Homo sapiens; test: Inhibitory activity against human concanavalin-A proliferation assay; format: functional
Nakaseomyces glabratus = test: In vitro antifungal activity against Torulopsis glabrata (TG 15545); format: functional
[7] = molecular target: Peptidyl-prolyl cis-trans isomerase FKBP1A (Homo sapiens, UniProt P62942); test: The compound was tested for binding affinity to FK506 binding protein 12 using Rapamycin as control, with an ascomycin conjugate of alkaline phosphatase in a competition binding assay
Peptidyl-prolyl cis-trans isomerase FKBP1A, sequence (P62942 whole entry): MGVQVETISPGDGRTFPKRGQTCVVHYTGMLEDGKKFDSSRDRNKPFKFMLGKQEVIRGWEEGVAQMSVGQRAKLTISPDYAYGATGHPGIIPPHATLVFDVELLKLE

Candida albicans [8] = test: Compound was screened in vitro for antifungal activity against Candida albicans (CA 38247); format: functional
Candida albicans [9] = test: Compound was screened in vitro for antifungal activity against Candida albicans (CA 442); format: functional
Candida albicans [10] = test: Compound was screened in vitro for antifungal activity against Candida albicans (CA 62376); format: functional

Structure (SMILES) | MIC (Aspergillus niger) [µg/mL] | MIC (Candida albicans [1]) [µg/mL] | MIC (Pichia kudriavzevii) [µg/mL] | MIC (Candida albicans [2]) | MIC (Candida albicans [3]) | MIC (Candida albicans [4]) [µg/mL] | MIC (Candida albicans [5]) | MIC (Candida albicans [6]) [µg/mL] | MIC (Candida tropicalis) [µg/mL] | MIC (Nakaseomyces glabratus) [µg/mL] | IC50 [7] [nM] | MIC (Candida albicans [8]) [µg/mL] | MIC (Candida albicans [9]) [µg/mL] | MIC (Candida albicans [10]) [µg/mL] | IC50 (Homo sapiens) [nM]
CO[C@@H]1C[C@H](C[C@@H](C)[C@@H]2CC(=O)[C@H](C)/C=C(\C)[C@@H](O)[C@@H](OC)C(=O)[C@H](C)C[C@H](C)/C=C/C=C/C=C(\C)[C@@H](N(O)C(=O)Oc3ccccc3)C[C@@H]3CC[C@@H](C)[C@@](O)(O3)C(=O)C(=O)N3CCCC[C@H]3C(=O)O2)CC[C@H]1O | ~100 (≈ 96.6 µM) | 12.5 (≈ 12.1 µM) | 1.56 (≈ 1.51 µM) | Weak | Weak | 25 (≈ 24.1 µM) | Weak | ~100 (≈ 96.6 µM) | 12.5 (≈ 12.1 µM) | 1.56 (≈ 1.51 µM) | 2.1 |  |  |  | 1100
CCCCOC(=O)N(O)[C@H]1C[C@@H]2CC[C@@H](C)[C@@](O)(O2)C(=O)C(=O)N2CCCC[C@H]2C(=O)O[C@H]([C@H](C)C[C@@H]2CC[C@@H](O)[C@H](OC)C2)CC(=O)[C@H](C)/C=C(\C)[C@@H](O)[C@@H](OC)C(=O)[C@H](C)C[C@H](C)/C=C/C=C/C=C/1C | ~100 (≈ 98.5 µM) | 12.5 (≈ 12.3 µM) | 1.56 (≈ 1.54 µM) | Weak | Weak | 12.5 (≈ 12.3 µM) | Weak | ~100 (≈ 98.5 µM) | 12.5 (≈ 12.3 µM) | 1.56 (≈ 1.54 µM) |  |  |  |  | 523
CO[C@H]1C[C@@H]2CC[C@@H](C)[C@@](O)(O2)C(=O)C(=O)N2CCCC[C@H]2C(=O)O[C@H]([C@H](C)C[C@@H]2CC[C@@H](OC(=O)N3CCNCC3)[C@H](OC)C2)CC(=O)[C@H](C)/C=C(\C)[C@@H](O)[C@@H](OC)C(=O)[C@H](C)C[C@H](C)CCCC/C=C/1C |  | > 100 | > 100 |  |  | > 100 |  |  | > 100 |  |  | > 100 | > 100 |  | 
CO[C@@H]1C[C@H](C[C@@H](C)[C@@H]2CC(=O)[C@H](C)/C=C(\C)[C@@H](O)[C@@H](OC)C(=O)[C@H](C)C[C@H](C)/C=C/C=C/C=C(\C)[C@@H](N(O)C(=O)OC(C)C)C[C@@H]3CC[C@@H](C)[C@@](O)(O3)C(=O)C(=O)N3CCCC[C@H]3C(=O)O2)CC[C@H]1O | ~100 (≈ 99.9 µM) | 6.25 (≈ 6.24 µM) | 0.78 (≈ 0.779 µM) | Weak | Weak | 12.5 (≈ 12.5 µM) | Weak | ~100 (≈ 99.9 µM) | 25 (≈ 25 µM) | 0.78 (≈ 0.779 µM) |  |  |  |  | 820
CO[C@H]1C[C@@H]2CC[C@@H](C)[C@@](O)(O2)C(=O)C(=O)N2CCCC[C@H]2C(=O)O[C@H]([C@H](C)C[C@@H]2CC[C@H](n3cnnn3)[C@H](OC)C2)CC(=O)[C@H](C)/C=C(\C)[C@@H](O)[C@@H](OC)C(=O)[C@H](C)C[C@H](C)CCCC/C=C/1C |  | > 100 | > 100 |  |  | > 100 |  |  | > 100 |  |  | > 100 | > 100 | > 100 | 

Compounds with a lower MIC (Candida albicans [1]), results first:

MIC (Aspergillus niger) [µg/mL] | MIC (Candida albicans [1]) [µg/mL] | MIC (Pichia kudriavzevii) [µg/mL] | MIC (Candida albicans [2]) | MIC (Candida albicans [3]) | MIC (Candida albicans [4]) [µg/mL] | MIC (Candida albicans [5]) | MIC (Candida albicans [6]) [µg/mL] | MIC (Candida tropicalis) [µg/mL] | MIC (Nakaseomyces glabratus) [µg/mL] | IC50 [7] [nM] | MIC (Candida albicans [8]) [µg/mL] | MIC (Candida albicans [9]) [µg/mL] | MIC (Candida albicans [10]) [µg/mL] | Structure (SMILES) | IC50 (Homo sapiens) [nM]
~100 (≈ 98.5 µM) | 3.12 (≈ 3.07 µM) | 0.78 (≈ 0.768 µM) | Weak | Weak | 12.5 (≈ 12.3 µM) | Weak | ~100 (≈ 98.5 µM) | 3.12 (≈ 3.07 µM) | 0.78 (≈ 0.768 µM) |  |  |  |  | CO[C@@H]1C[C@H](C[C@@H](C)[C@@H]2CC(=O)[C@H](C)/C=C(\C)[C@@H](O)[C@@H](OC)C(=O)[C@H](C)C[C@H](C)/C=C/C=C/C=C(\C)[C@@H](N(O)C(=O)OCC(C)C)C[C@@H]3CC[C@@H](C)[C@@](O)(O3)C(=O)C(=O)N3CCCC[C@H]3C(=O)O2)CC[C@H]1O | 760
 | 1.56 (≈ 1.7 µM) | 0.78 (≈ 0.849 µM) |  |  | 1.56 (≈ 1.7 µM) |  |  | 1.56 (≈ 1.7 µM) |  |  | 1.56 (≈ 1.7 µM) | 1.56 (≈ 1.7 µM) | 0.78 (≈ 0.849 µM) | CO[C@H]1C[C@@H]2CC[C@@H](C)[C@@](O)(O2)C(=O)C(=O)N2CCCC[C@H]2C(=O)O[C@H]([C@H](C)C[C@@H]2CCC(O)[C@H](OC)C2)CC(=O)[C@H](C)/C=C(\C)[C@@H](O)[C@@H](OC)C(=O)[C@H](C)C[C@H](C)CCCC/C=C/1C (single isomer, unassigned; 3) | 3400
~100 (≈ 98.5 µM) | 1.56 (≈ 1.54 µM) | 0.78 (≈ 0.768 µM) | Weak | Weak | 3.12 (≈ 3.07 µM) | Weak | ~100 (≈ 98.5 µM) | 1.56 (≈ 1.54 µM) | 0.78 (≈ 0.768 µM) |  |  |  |  | CO[C@@H]1C[C@H](C[C@@H](C)[C@@H]2CC(=O)[C@H](C)/C=C(\C)[C@@H](O)[C@@H](OC)C(=O)[C@H](C)C[C@H](C)/C=C/C=C/C=C(\C)[C@H](N(O)C(=O)OCC(C)C)C[C@@H]3CC[C@@H](C)[C@@](O)(O3)C(=O)C(=O)N3CCCC[C@H]3C(=O)O2)CC[C@H]1O | 196

Reference: ChEMBL document CHEMBL1133206, “Antifungal rapamycin analogues with reduced immunosuppressive activity” (Bioorg Med Chem Lett, 2000)
